Target: T1, recombinant guanylate cyclase reporter cell line (Rattus norvegicus, UniProt P19686+P20595)
T1 construct: expressed in transfected cells; host or cells: recombinant reporter cell line
T1 sequence (P19686 1-690): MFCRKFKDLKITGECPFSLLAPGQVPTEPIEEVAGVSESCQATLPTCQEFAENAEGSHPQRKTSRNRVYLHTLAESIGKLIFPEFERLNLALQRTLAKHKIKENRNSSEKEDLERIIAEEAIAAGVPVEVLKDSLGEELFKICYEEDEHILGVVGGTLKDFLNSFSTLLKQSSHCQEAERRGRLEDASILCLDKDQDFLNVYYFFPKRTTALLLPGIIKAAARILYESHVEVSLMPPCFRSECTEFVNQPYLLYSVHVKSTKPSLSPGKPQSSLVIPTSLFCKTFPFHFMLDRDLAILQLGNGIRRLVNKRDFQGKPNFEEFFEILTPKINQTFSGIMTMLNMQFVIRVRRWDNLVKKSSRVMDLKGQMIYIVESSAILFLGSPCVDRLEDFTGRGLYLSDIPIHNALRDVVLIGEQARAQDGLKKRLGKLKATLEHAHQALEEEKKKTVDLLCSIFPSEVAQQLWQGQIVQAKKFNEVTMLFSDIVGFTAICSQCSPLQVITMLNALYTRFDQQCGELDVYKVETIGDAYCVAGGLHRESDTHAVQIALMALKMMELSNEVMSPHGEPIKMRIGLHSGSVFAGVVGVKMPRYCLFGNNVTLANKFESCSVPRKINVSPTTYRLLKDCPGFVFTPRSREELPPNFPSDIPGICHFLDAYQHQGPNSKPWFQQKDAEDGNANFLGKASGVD
T1 sequence (P20595 1-619): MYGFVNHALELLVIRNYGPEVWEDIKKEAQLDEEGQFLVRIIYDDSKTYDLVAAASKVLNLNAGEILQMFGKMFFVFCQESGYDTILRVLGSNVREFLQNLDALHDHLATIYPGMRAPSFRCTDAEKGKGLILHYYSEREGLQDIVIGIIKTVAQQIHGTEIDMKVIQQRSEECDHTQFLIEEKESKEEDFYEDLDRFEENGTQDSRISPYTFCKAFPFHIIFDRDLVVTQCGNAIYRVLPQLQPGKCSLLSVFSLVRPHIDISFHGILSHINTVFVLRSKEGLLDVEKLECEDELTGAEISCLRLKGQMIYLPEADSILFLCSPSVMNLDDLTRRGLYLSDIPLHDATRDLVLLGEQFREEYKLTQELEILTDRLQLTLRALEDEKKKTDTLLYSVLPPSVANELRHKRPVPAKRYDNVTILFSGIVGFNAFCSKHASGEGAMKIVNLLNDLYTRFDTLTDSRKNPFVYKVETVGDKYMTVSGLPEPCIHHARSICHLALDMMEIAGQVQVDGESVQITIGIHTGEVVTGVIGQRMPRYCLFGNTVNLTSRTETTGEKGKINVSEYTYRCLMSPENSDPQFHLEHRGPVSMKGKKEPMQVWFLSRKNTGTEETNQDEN
Test: Action on recombinant guanylate cyclase reporter cell line
Format: cell-based
Details: in some cases mean values from individual determinations
In short: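 MEC values, meaning the lowest concentration producing a detectable response, were taken from a recombinant cyclase reporter cell assay. Where repeated, individual determinations were averaged.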

Structure (SMILES)	MEC (minimal effective concentration)
Cc1cc(OCc2c(F)cccc2F)c2nc(C)c(C(=O)NC(CN)c3cccc(OCCO)c3)n2c1 (racemic) [Example 393, rac-N-{2-amino-1-[3-(2-hydroxyethoxy)phenyl]ethyl}-8-[(2,6-difluorobenzyl)oxy]-2,6-dimethylimidazo[1,2-a]pyridine-3-carboxamide]	1.00 µM
Cc1cc(OCc2c(F)cccc2F)c2nc(C)c(C(=O)NC(CN)c3cccc(C(F)(F)F)c3)n2c1 (racemic) [Example 394, rac-N-{2-amino-1-[3-(trifluoromethyl)phenyl]ethyl}-8-[(2,6-difluorobenzyl)oxy]-2,6-dimethylimidazo[1,2-a]pyridine-3-carboxamide]	0.30 µM
Cc1cc(OCc2c(F)cccc2F)c2nc(C)c(C(=O)NC(CN)c3ccc4ncccc4c3)n2c1 (racemic) [Example 395, rac-N-[2-amino-1-(quinolin-6-yl)ethyl]-8-[(2,6-difluorobenzyl)oxy]-2,6-dimethylimidazo[1,2-a]pyridine-3-carboxamide]	1.00 µM
CC(=O)Nc1cccc(C(CN)NC(=O)c2c(C)nc3c(OCc4c(F)cccc4F)cc(C)cn23)c1 (racemic) [Example 396, rac-N-[1-(3-acetamidophenyl)-2-aminoethyl]-8-[(2,6-difluorobenzyl)oxy]-2,6-dimethylimidazo[1,2-a]pyridine-3-carboxamide]	3.00 µM
COC(=O)c1cccc(C(N)CNC(=O)c2c(C)nc3c(OCc4c(F)cccc4F)cc(C)cn23)c1 (racemic) [Example 399, rac-Methyl 3-{1-amino-2-[({8-[(2,6-difluorobenzyl)oxy]-2,6-dimethylimidazo[1,2-a]pyridin-3-yl}carbonyl)amino]ethyl}benzoate]	1.00 µM
Cc1cc(OCc2c(F)cccc2F)c2nc(C)c(C(=O)NCC(N)C#N)n2c1 (racemic) [Example 400, rac-N-(2-amino-2-cyanoethyl)-8-[(2,6-difluorobenzyl)oxy]-2,6-dimethylimidazo[1,2-a]pyridine-3-carboxamide]	0.65 µM
CC=CCC(N)CNC(=O)c1c(C)nc2c(OCc3c(F)cccc3F)cc(C)cn12 (racemic) [Example 406, rac-N-[(4E/Z)-2-aminohex-4-en-1-yl]-8-[(2,6-difluorobenzyl)oxy]-2,6-dimethylimidazo[1,2-a]pyridine-3-carboxamide]	0.10 µM
CSCCC(N)CNC(=O)c1c(C)nc2c(OCc3c(F)cccc3F)cc(C)cn12 (racemic) [Example 412, rac-N-[2-amino-4-(methylsulfanyl)butyl]-8-[(2,6-difluorobenzyl)oxy]-2,6-dimethylimidazo[1,2-a]pyridine-3-carboxamide]	0.10 µM
Cc1cc(OCc2c(F)cccc2F)c2nc(C)c(C(=O)NCC(N)CCS(C)(=O)=O)n2c1 (racemic) [Example 413, rac-N-[2-amino-4-(methylsulfonyl)butyl]-8-[(2,6-difluorobenzyl)oxy]-2,6-dimethylimidazo[1,2-a]pyridine-3-carboxamide]	5.5 µM
Cc1cc(OCc2c(F)cccc2F)c2nc(C)c(C(=O)NCC3CS(=O)(=O)CCN3)n2c1 (racemic) [Example 414, rac-8-[(2,6-difluorobenzyl)oxy]-N-[(1,1-dioxidothiomorpholin-3-yl)methyl]-2,6-dimethylimidazo[1,2-a]pyridine-3-carboxamide]	0.30 µM
Cc1cc(OCc2c(F)cccc2F)c2nc(C)c(C(=O)NCC(N)c3csc(C)n3)n2c1 (racemic) [Example 415, rac-N-[2-amino-2-(2-methyl-1,3-thiazol-4-yl)ethyl]-8-[(2,6-difluorobenzyl)oxy]-2,6-dimethylimidazo[1,2-a]pyridine-3-carboxamide triformate]	5.5 µM

From patent publication US20150274719A1, “AMINO-SUBSTITUTED IMIDAZO[1,2-A]PYRIDINECARBOXAMIDES AND THEIR USE” (BAYER PHARMA AKTIENGESELLSCHAFT, priority 2012, published 2015)
